Measurements published in the kinase profiling compilation of Christmann-Franck et al. (2016).
Values joined by “and” are separate entries in the source; they are usually repeats but may differ in a detail not shown here. Equal entries are not always repeated.

Legend:
Experiment in all cases: radiometric filter-binding kinase assay, Kinase HotSpot
Details in all cases: compound 0.5 µM; ATP 10 µM
[1] = tested on: ARAF (human), P10398 [Y301D/Y302D]
[2] = target: CDK3 CCNE1 (human) (UniProt Q00526+P24864)
[3] = target: MAPK3 (human) (UniProt P27361)
[4] = target: DSTYK (human) (UniProt Q6XUX3)
Chain of DSTYK (human) (Q6XUX3 whole entry, looked up): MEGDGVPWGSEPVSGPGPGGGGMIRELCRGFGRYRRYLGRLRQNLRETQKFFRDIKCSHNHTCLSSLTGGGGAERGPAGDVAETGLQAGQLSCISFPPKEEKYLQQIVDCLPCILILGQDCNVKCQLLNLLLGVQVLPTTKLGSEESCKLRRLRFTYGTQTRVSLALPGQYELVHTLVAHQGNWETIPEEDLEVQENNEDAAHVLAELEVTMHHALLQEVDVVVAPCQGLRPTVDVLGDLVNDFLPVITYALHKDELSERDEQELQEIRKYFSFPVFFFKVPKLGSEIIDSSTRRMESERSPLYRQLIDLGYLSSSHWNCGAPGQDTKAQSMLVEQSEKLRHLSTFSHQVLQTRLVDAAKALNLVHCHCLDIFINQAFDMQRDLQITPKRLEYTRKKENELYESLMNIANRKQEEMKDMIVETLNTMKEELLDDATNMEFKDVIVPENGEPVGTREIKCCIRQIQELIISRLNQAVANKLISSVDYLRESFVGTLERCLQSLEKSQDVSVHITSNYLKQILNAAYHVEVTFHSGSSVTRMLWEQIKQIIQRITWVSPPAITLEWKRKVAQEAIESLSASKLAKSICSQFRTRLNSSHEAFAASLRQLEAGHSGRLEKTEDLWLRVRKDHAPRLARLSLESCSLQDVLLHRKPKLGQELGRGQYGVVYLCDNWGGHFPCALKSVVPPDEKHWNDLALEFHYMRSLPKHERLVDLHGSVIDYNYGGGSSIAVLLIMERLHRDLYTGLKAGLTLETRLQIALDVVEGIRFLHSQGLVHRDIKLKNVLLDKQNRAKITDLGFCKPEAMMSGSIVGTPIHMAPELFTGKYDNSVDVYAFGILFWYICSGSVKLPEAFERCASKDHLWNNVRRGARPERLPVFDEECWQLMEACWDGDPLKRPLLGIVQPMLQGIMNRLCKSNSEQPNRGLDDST

[5] = target: PRKG1 (human) (UniProt Q13976)
Chain of PRKG1 (human) (Q13976 whole entry, looked up): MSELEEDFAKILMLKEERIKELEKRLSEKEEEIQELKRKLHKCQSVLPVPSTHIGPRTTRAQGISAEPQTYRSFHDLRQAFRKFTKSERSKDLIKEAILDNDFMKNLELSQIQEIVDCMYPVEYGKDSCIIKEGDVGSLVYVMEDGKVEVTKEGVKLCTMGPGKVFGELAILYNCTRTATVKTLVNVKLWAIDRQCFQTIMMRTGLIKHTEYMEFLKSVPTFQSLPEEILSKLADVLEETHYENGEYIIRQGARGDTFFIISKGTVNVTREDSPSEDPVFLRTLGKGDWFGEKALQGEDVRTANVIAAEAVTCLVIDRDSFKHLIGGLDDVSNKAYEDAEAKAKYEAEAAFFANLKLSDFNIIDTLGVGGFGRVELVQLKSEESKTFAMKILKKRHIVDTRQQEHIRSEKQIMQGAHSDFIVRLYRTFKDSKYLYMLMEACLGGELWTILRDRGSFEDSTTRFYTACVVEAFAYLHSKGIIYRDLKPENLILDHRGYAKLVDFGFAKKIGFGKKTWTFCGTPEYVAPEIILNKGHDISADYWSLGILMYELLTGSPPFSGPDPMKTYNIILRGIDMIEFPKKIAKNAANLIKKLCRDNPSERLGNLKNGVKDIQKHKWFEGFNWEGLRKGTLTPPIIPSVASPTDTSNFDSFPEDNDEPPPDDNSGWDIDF

[6] = target: PASK (human) (UniProt Q96RG2)
[7] = target: CHEK1 (human) (UniProt O14757)
[8] = target: RPS6KA1 KD1 KD2 (human) (UniProt Q15418)
[9] = target: CSNK1G3 (human) (UniProt Q9Y6M4)
Chain of CSNK1G3 (human) (Q9Y6M4 whole entry, looked up): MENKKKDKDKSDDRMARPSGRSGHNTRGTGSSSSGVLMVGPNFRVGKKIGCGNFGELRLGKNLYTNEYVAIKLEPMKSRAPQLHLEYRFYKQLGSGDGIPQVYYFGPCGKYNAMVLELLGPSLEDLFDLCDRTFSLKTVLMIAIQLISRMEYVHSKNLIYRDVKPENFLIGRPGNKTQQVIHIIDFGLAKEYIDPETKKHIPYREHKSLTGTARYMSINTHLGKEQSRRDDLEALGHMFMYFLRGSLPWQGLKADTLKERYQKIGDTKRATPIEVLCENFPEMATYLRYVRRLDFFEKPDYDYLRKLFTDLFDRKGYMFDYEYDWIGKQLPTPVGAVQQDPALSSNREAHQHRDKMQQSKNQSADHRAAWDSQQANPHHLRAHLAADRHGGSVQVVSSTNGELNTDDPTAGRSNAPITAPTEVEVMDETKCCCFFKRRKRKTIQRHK

[10] = target: RPS6KA2 KD1 KD2 (human) (UniProt Q15349)
[11] = target: CSNK1A1 (human) (UniProt P48729)
[12] = target: ITK (human) (UniProt Q08881)
Chain of ITK (human) (Q08881 whole entry, looked up): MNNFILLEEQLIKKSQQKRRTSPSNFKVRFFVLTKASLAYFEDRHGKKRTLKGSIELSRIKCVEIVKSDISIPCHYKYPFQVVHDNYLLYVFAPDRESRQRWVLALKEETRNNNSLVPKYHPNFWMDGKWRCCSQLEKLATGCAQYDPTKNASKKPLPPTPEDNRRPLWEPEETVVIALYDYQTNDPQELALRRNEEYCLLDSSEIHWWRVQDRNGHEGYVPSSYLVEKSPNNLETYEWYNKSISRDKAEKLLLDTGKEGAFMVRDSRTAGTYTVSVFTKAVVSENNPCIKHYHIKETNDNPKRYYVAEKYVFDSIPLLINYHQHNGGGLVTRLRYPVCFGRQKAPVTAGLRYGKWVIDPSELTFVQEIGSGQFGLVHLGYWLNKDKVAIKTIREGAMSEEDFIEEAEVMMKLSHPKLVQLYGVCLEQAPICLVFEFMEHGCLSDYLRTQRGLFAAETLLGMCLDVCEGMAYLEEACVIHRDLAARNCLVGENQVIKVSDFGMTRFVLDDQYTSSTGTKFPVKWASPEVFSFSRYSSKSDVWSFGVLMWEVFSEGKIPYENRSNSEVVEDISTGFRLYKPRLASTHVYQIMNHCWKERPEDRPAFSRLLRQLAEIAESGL

[13] = target: CLK4 (human) (UniProt Q9HAZ1)
[14] = target: PRKCG (human) (UniProt P05129)
[15] = target: JAK1 JH1 catalytic (human) (UniProt P23458)
[16] = target: TYRO3 (human) (UniProt Q06418)
[17] = target: SRC (human) (UniProt P12931)
[18] = target: EPHA8 (human) (UniProt P29322)
[19] = target: ABL1 (human) (UniProt P00519)
[20] = target: MAPK8 (human) (UniProt P45983)
[21] = target: NUAK2 (human) (UniProt Q9H093)
Chain of NUAK2 (human) (Q9H093 whole entry, looked up): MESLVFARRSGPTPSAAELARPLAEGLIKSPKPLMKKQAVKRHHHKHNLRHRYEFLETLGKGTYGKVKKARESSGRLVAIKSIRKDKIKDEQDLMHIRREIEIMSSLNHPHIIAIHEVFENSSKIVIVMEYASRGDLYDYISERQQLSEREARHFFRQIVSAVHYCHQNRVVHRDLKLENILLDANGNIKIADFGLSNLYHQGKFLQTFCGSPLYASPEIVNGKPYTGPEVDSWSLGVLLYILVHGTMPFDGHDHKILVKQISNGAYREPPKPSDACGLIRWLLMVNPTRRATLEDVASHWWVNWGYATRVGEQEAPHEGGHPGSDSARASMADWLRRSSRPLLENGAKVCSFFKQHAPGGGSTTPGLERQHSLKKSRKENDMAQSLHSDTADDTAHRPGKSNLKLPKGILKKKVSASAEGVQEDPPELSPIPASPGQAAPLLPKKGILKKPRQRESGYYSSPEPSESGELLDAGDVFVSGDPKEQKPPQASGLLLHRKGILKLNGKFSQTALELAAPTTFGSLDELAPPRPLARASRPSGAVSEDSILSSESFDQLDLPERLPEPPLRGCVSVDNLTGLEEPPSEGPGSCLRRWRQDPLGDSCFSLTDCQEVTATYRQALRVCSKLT

[22] = target: DYRK2 (human) (UniProt Q92630)
[23] = target: MARK4 (human) (UniProt Q96L34)
[24] = target: BRAF (human) (UniProt P15056)
[25] = target: PRKCZ (human) (UniProt Q05513)
[26] = target: TAOK1 (human) (UniProt Q7L7X3)
Chain of TAOK1 (human) (Q7L7X3 whole entry, looked up): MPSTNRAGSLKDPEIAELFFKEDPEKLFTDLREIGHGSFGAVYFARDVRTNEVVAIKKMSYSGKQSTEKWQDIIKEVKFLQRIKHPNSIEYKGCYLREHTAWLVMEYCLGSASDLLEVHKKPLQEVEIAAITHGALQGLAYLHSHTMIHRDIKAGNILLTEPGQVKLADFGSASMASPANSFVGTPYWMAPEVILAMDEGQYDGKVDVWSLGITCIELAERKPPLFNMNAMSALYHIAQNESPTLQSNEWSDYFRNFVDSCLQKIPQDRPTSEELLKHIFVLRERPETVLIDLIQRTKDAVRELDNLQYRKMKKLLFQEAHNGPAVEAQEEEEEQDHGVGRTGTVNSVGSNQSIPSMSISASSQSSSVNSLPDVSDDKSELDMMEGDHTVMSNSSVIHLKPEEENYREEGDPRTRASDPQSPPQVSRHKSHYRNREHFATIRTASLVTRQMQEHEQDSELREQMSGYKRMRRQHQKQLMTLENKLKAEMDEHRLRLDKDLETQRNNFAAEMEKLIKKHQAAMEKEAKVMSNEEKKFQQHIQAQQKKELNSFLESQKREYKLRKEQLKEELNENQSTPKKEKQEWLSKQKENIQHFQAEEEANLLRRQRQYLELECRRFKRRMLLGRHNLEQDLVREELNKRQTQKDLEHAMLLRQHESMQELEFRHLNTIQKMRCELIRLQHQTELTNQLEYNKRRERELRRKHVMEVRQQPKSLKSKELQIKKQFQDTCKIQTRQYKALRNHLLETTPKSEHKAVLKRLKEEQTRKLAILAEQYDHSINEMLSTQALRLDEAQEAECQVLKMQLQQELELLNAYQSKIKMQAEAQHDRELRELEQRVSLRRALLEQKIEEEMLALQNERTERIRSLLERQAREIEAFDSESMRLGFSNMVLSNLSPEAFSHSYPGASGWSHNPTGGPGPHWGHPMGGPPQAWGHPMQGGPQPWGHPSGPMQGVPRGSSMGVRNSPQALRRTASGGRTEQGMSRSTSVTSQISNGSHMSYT

[27] = target: PKN1 (human) (UniProt Q16512)
[28] = target: STK25 (human) (UniProt O00506)
[29] = target: INSRR (human) (UniProt P14616)
[30] = target: PRKCE (human) (UniProt Q02156)
[31] = target: ROS1 (human) (UniProt P08922)
[32] = target: EGFR (human) (UniProt P00533)
[33] = target: CAMK2B (human) (UniProt Q13554)
[34] = target: CSNK2A2 (human) (UniProt P19784)
[35] = target: PDGFRB (human) (UniProt P09619)

SMILES | residual activity [1] | residual activity [2] | residual activity [3] | residual activity [4] | residual activity [5] | residual activity [6] | residual activity [7] | residual activity [8] | residual activity [9] | residual activity [10] | residual activity [11] | residual activity [12] | residual activity [13] | residual activity [14] | residual activity [15] | residual activity [16] | residual activity [17] | residual activity [18] | residual activity [19] | residual activity [20] | other results
CC(C)(C)c1nc2c3ccc(F)cc3c3c(=O)[nH]ccc3c2[nH]1 | 122% | 92.1% | 85.7% | 62% | 40.2% and 52.3% | 83.2% | 22.9% | 38.6% | 105% | 34.6% | 94.6% | 86% | 70.7% | 79.9% | 2.54% | 90.3% | 93.4% | 105% | 98.4% | 73.7% | residual activity [21]: 66%; residual activity [22]: 62.5%; residual activity [23]: 44.5%; residual activity [24]: 117%; residual activity [25]: 93.2%; residual activity [26]: 86.9%; residual activity [27]: 28.3%; residual activity [28]: 86.9%; residual activity [29]: 75.2%; residual activity [30]: 51.4%; residual activity [31]: 31.2%; residual activity [32]: 94.8%; residual activity [33]: 73.4%; residual activity [34]: 91.5%
O=C1Cc2c([nH]c3ccc([N+](=O)[O-])cc23)-c2ccccc2N1 | 96.2% | 56.8% | 93.5% | 90% | 94.3% and 96.8% | 86.9% | 37.5% | 89.7% | 90% | 62% | 103% | 97.1% | 86.4% | 92.5% | 97.8% | 96.7% | 39.7% | 104% | 57.7% | 99.6% | residual activity [35]: 87.4%; residual activity [21]: 68.6%; residual activity [22]: 72%; residual activity [23]: 55.4%; residual activity [24]: 99.5%; residual activity [25]: 109%; residual activity [26]: 66.9%; residual activity [27]: 88.2%; residual activity [28]: 83.6%; residual activity [29]: 94.5%; residual activity [30]: 111%; residual activity [31]: 80.2%; residual activity [33]: 98.1%; residual activity [34]: 64.4%
